{
  "source": "patent EP0479899B1",
  "about": "“VASODILATORY AND IMMUNE SUPPRESSANT PEPTIDES” (THE PRESIDENT AND FELLOWS OF HARVARD COLLEGE, priority 1989, dated 1991)",
  "tested_on": "Human macrophages",
  "assay": "H₂O₂ production by IFN-γ activated macrophages (scopoletin fluorometric assay)",
  "format": "cell-based",
  "settings": "3 hrs preincubation, up to 1000 ng/ml (2.5 X 10⁻⁷M); IFN-γ 200 units/ml; 3 days",
  "note": "Where no end group is shown, it is not given here.",
  "data": [
    {"substance": "Calcitonin: neuropeptide derived from the same gene as CGRP, available commercially (CGNLSTCMLGTYTQDFNKFHTFPQTAIGVGAP; ends and bridges not checked; cysteine pairing not given here; UniProt P01258 85-116, looked up)", "values": [
      {"measurement": "inhibition of H₂O₂ production by macrophages", "result": "inhibit H₂O₂ production by macrophages to a degree similar to that seen with CGRP"}
    ]}
  ]
}
